Data as given in patent publication US11291630B2, “Gelling compositions for treating malignant tumours and/or preventing tumour recurrence” (Centre National de la Recherche Scientifique (CNRS), priority 2015, dated 2022).

Assay: Measurement of gelation temperature by DSC and rheology (Example 1)
Format: physicochemical
Conditions: addition of 0.5% 5-FU to gel P407/P188/Alginate (20/2/1) (FIG. 2)
Description: The gelation temperature (Tgel) was determined by Differential Scanning calorimetry (DSC) and rheology.
By DSC: between 20-35 mg of the solution were sealed in aluminium pans and placed into the DSC instrument (DSC 1, Mettler Toledo). An empty aluminium pan (size: 40 μL) served as a reference sample. The instrument was equilibrated at 5° C. for 7 min prior to initiation of the scans. The sample was then heated to 40° C. at a heating rate of 5° C./min. Data analysis was performed with the software preinstalled in the instrument (STARe Software). The gelation temperature was determined as the small enthalpy change which was visible around at 10-12° C. above the big endothermic peak caused by micellization of the poloxamers, as already done in other studies (Nie et al, Int. J. Nanomedicine. 6 (2011) 151-166. doi:10.2147/IJN.S15057).
By rheology: a deformation was applied and varied between 0.01 to 100% at a fixed frequency of 1 Hz with a cone/plan mobile with an angle of 1°, a diameter of 50 mm and with a gap of 0.1 mm. The sample was left at room temperature for 1 hour, then approximately 750 μL was loaded on the pelletier plan which is submitted to a temperature increase. The viscoelastic moduli G′ and G″ are measured. The gelation temperature corresponds to the curve intersections.

- increase of the gelation temperature: 2 °C
SMILES: O=c1[nH]cc(F)c(=O)[nH]1 [Composition 5-FU, 5-Fluorouracil]
